# The source made the active and inactive calls. No cut-off for these calls is given here.
# Assays:
# [1] = system: Mus musculus; assay: In vivo agonist activity at EP4 in po dosed C57BL/6J mouse assessed as increase in renin level in plasma at 10 mg/kg, po measured after 2 hrs; type: functional, organism-based
# [2] = In vivo agonist activity at EP4 in po dosed C57BL/6J mouse assessed as increase in Ccl5 expression in colon administered for 3 days by qPCR analysis; type: organism-based; settings: 72 h, dose 1-5 mg/kg, time 3 day
# [3] = Drug uptake in BALB/c mouse plasma at 1 mg/kg, po or iv; type: ADME, organism-based; settings: in vivo
# [4] = Drug uptake in BALB/c mouse Colon at 1 mg/kg, po measured at 24 hrs; type: ADME, organism-based; settings: in vivo
# [5] = Drug uptake in BALB/c mouse Feces at 1 mg/kg, po measured at 24 hrs; type: ADME, organism-based; settings: in vivo
# [6] = Cmax in BALB/c mouse plasma at 1 mg/kg, po or iv measured at 24 hrs; type: ADME, organism-based; design: dose 1 mg/kg, time 24 hrs, route po
# [7] = Oral bioavailability in BALB/c mouse at 1 mg/kg measured at 24 hrs; type: ADME, organism-based; settings: in vivo
# [8] = Drug uptake in BALB/c mouse Colon at 1 mg/kg, po; type: ADME, organism-based; settings: in vivo
# [9] = Drug uptake in BALB/c mouse Feces at 1 mg/kg, po; type: ADME, organism-based; settings: in vivo
Activity [2],Drug uptake [3],Drug uptake [4],Drug uptake [5],Cmax [6] [nM],bioavailability [7] [%],Drug uptake [8],Drug uptake [9],SMILES,Activity [1]
Dose-Dependent Effect,,,,,,,,O=C(CCCCCCN1C(=O)CC[C@@H]1/C=C/[C@@H](O)Cc1ccccc1)NNC(=O)C(=O)O,inactive
,Not Active,Active,Active,,,,,O=C(CCCCCCN1C(=O)CC[C@@H]1/C=C/[C@@H](O)Cc1ccccc1)NS(=O)(=O)c1ccccc1,
,,Active,Active,~50,3,Active,Active,O=C(O)CCCCCCN1C(=O)CC[C@@H]1/C=C/[C@@H](O)Cc1ccccc1,
